The results in this text go back to patent US8962674B2 (Tokyo Institute of Technology, priority 2006, dated 2015).

The melting point is the temperature of the solid-liquid transition.

`CN(C)C(=O)c1ccccc1/C=C/C(=O)CC(=O)/C=C/c1ccc(O)cc1` [CU479, (1E,6E)-1-[2-(dimethylaminocarbonyl)phenyl]-7-(4-hydroxyphenyl)hepta-1,6-diene-3,5-dione]: the melting point lay in the range of 210 to 218 °C.
Then `COc1ccc(/C=C/C(=O)CC(=O)/C=C/c2ccc(N(C)C)cc2[N+](=O)[O-])cc1O` [CU197, (1E,6E)-1-(4-dimethylamino-2-nitrophenyl)-7-(3-hydroxy-4-methoxyphenyl)hepta-1,6-diene-3,5-dione], with 183 to 186 °C.
Under `O=C(/C=C/c1ccc(O)cc1)CC(=O)/C=C/c1ccccc1N1CCCC1` [CU496, (1E,6E)-1-(4-hydroxyphenyl)-7-[2-(pyrrolidin-1-yl)phenyl]hepta-1,6-diene-3,5-dione] stands 73 to 80 °C; under `COc1ccc(/C=C/C(=O)CC(=O)/C=C/c2ccc(O)c(OC)c2)cc1O` [CU105, (1E,6E)-1-(3-hydroxy-4-methoxyphenyl)-7-(4-hydroxy-3-methoxyphenyl)hepta-1,6-diene-3,5-dione], 78 to 85 °C; under `CCN(CC)c1ccc(/C=C/C(=O)CC(=O)/C=C/c2ccc(OC)c(O)c2)c(O)c1` [CU278, (1E,6E)-1-(4-diethylamino-2-hydroxyphenyl)-7-(3-hydroxy-4-methoxyphenyl)hepta-1,6-diene-3,5-dione], 101 to 108 °C.
Then `COc1ccc(/C=C/C(=O)CC(=O)/C=C/c2cc(OC)c(OC)c(OC)c2)cc1O` [CU205, (1E,6E)-1-(3-hydroxy-4-methoxyphenyl)-7-(3,4,5-trimethoxyphenyl)hepta-1,6-diene-3,5-dione], with 195 to 200 °C; and `CN(C)c1ccc(/C=C/C(=O)CC(=O)/C=C/c2ccc(N(C)C)cc2[N+](=O)[O-])c([N+](=O)[O-])c1`, with 245 to 250 °C.
On to `Nc1ccc(OCc2ccccc2)cc1/C=C/C(=O)CC(=O)/C=C/c1ccc(O)cc1` [CU489, (1E,6E)-1-(2-amino-5-benzyloxyphenyl)-7-(4-hydroxyphenyl)hepta-1,6-diene-3,5-dione], for which the melting point is 175 to 179 °C.
Under `COc1ccccc1/C=C/C(=O)CC(=O)/C=C/c1ccc(O)cc1` [CU066, (1E,6E)-1-(4-hydroxyphenyl)-7-(2-methoxyphenyl)hepta-1,6-diene-3,5-dione] stands 171 to 178 °C; under `O=C(/C=C/c1ccc(O)cc1)CC(=O)/C=C/c1ccccc1N1CCOCC1` [CU498, (1E,6E)-1-(4-hydroxyphenyl)-7-(2-morpholinophenyl)hepta-1,6-diene-3,5-dione], 188 to 192 °C.
Under `COc1ccc(/C=C/C(=O)CC(=O)/C=C/c2cccnc2)cc1O` [CU217, (1E,6E)-1-(3-hydroxy-4-methoxyphenyl)-7-(pyridin-3-yl)hepta-1,6-diene-3,5-dione] stands 174 to 175 °C; under `Cc1ccc(Oc2ncccc2/C=C/C(=O)CC(=O)/C=C/c2ccc(O)cc2)cc1` [CU340, (1E,6E)-1-(4-hydroxyphenyl)-7-[2-(4-methylphenoxy)pyridin-3-yl]hepta-1,6-diene-3,5-dione], 180 to 185 °C; under `COc1ccc(/C=C/C(=O)CC(=O)/C=C/c2cn(C)c3ccccc23)cc1O` [CU125, (1E,6E)-1-(3-hydroxy-4-methoxyphenyl)-7-(1-methyl-1H-indol-3-yl)hepta-1,6-diene-3,5-dione], 162 to 166 °C.
Then `COc1cc(/C=C/C(=O)CC(=O)/C=C/c2ccc(N(C)C)cc2Cl)ccc1O` [CU196, (1E,6E)-1-(2-chloro-4-dimethylaminophenyl)-7-(4-hydroxy-3-methoxyphenyl)hepta-1,6-diene-3,5-dione], with 113 to 120 °C; and `COc1ccc(/C=C/C(=O)CC(=O)/C=C/c2ccc(O)cc2OC)cc1O` [CU086, (1E,6E)-1-(4-hydroxy-2-methoxyphenyl)-7-(3-hydroxy-4-methoxyphenyl)hepta-1,6-diene-3,5-dione], with 90 to 95 °C; and `COc1ccc(/C=C/C(=O)CC(=O)/C=C/c2ccc(N(C)C)cc2Cl)cc1O` [CU202, (1E,6E)-1-(2-chloro-4-dimethylaminophenyl)-7-(3-hydroxy-4-methoxyphenyl)hepta-1,6-diene-3,5-dione], with 160 to 164 °C.
On to `O=C(/C=C/c1ccc(O)cc1)CC(=O)/C=C/c1cc(Br)ccc1F` [CU466, (1E,6E)-1-(5-bromo-2-fluorophenyl)-7-(4-hydroxyphenyl)hepta-1,6-diene-3,5-dione], for which the melting point was 177 to 203 °C.
Then `COc1ccc(/C=C/C(=O)CC(=O)/C=C/c2cc3ccccc3n2C)cc1O` [CU128, (1E,6E)-1-(3-hydroxy-4-methoxyphenyl)-7-(1-methyl-1H-indol-2-yl)hepta-1,6-diene-3,5-dione], with 185 to 193 °C; and `CCN(CC)c1ccc(/C=C/C(=O)CC(=O)/C=C/c2ccc(OC)c(O)c2)c(OCC=C(C)C)c1` [CU442, (1E,6E)-1-(4-diethylamino-2-prenyloxyphenyl)-7-(3-hydroxy-4-methoxyphenyl)hepta-1,6-diene-3,5-dione], with 139 to 143 °C; and `COc1cc(/C=C/C(=O)CC(=O)/C=C/c2c(O)cccc2OC)ccc1O` [CU279, (1E,6E)-1-(2-hydroxy-6-methoxyphenyl)-7-(4-hydroxy-3-methoxyphenyl)hepta-1,6-diene-3,5-dione], with 161 to 164 °C.
Under `COc1cc(/C=C/C(=O)CC(=O)/C=C/c2cc(O)ccc2O)ccc1O` [CU106, (1E,6E)-1-(2,5-dihydroxyphenyl)-7-(4-hydroxy-3-methoxyphenyl)hepta-1,6-diene-3,5-dione] stands 125 to 130 °C; under `O=C(/C=C/c1cccnc1N1CCN(Cc2ccccc2)CC1)CC(=O)/C=C/c1cccnc1N1CCN(Cc2ccccc2)CC1` [CU385, (1E,6E)-1,7-bis[2-(4-benzylpiperazin-1-yl)pyridin-3-yl]hepta-1,6-diene-3,5-dione], 150 to 155 °C.
Then `O=C(/C=C/c1ccc(O)cc1)CC(=O)/C=C/c1cccc2cccnc12` [CU323, (1E,6E)-1-(4-hydroxyphenyl)-7-(quinolin-8-yl)hepta-1,6-diene-3,5-dione], with 112 to 117 °C.
`O=C(/C=C/c1cccc2cccnc12)CC(=O)/C=C/c1cccc2cccnc12` [CU414, (1E,6E)-1,7-bis(quinolin-8-yl)hepta-1,6-diene-3,5-dione] registered a melting point of 202 to 208 °C.
Then `COc1ccc(O)c(/C=C/C(=O)CC(=O)/C=C/c2ccc(O)c(OC)c2)c1` [CU088, (1E,6E)-1-(2-hydroxy-5-methoxyphenyl)-7-(4-hydroxy-3-methoxyphenyl)hepta-1,6-diene-3,5-dione], with 78 to 80 °C; and `CCn1c2ccccc2c2cc(/C=C/C(=O)CC(=O)/C=C/c3ccc4c(c3)c3ccccc3n4CC)ccc21` [CU263, (1E,6E)-1,7-bis(9-ethyl-9H-carbazol-3-yl)hepta-1,6-diene-3,5-dione], with 264 to 267 °C.
Under `COc1ccc(/C=C/C(=O)CC(=O)/C=C/c2ccc(O)c(OC)c2)c(OC)c1` [CU073, (1E,6E)-1-(2,4-dimethoxyphenyl)-7-(4-hydroxy-3-methoxyphenyl)hepta-1,6-diene-3,5-dione] stands 108 to 113 °C; under `COc1ccc(/C=C/C(=O)CC(=O)/C=C/c2cccc(O)c2)cc1O` [CU081, (1E,6E)-1-(3-hydroxy-4-methoxyphenyl)-7-(3-hydroxyphenyl)hepta-1,6-diene-3,5-dione], 200 to 206 °C; under `COc1ccc(/C=C/C(=O)CC(=O)/C=C/c2cc(OC)c(O)c(OC)c2)cc1O` [CU136, (1E,6E)-1-(4-hydroxy-3,5-dimethoxyphenyl)-7-(3-hydroxy-4-methoxyphenyl)hepta-1,6-diene-3,5-dione], 91 to 95 °C.
Under `CCN(CC)c1ccc(/C=C/C(=O)CC(=O)/C=C/c2ccc(O)cc2)c(OCC=C(C)C)c1` [CU426, (1E,6E)-1-(4-diethylamino-2-prenyloxyphenyl)-7-(4-hydroxyphenyl)hepta-1,6-diene-3,5-dione] stands 69 to 76 °C.
On to `COc1ccc(/C=C/C(=O)CC(=O)/C=C/c2ccc(SC)cc2)cc1O` [CU216, (1E,6E)-1-(3-hydroxy-4-methoxyphenyl)-7-(4-methylthiophenyl)hepta-1,6-diene-3,5-dione], for which the melting point lay in the range of 158 to 162 °C.
Under `O=C(/C=C/c1ccc(O)cc1)CC(=O)/C=C/c1ccccc1-c1ccc2ccccc2c1` [CU529, (1E,6E)-1-(4-hydroxyphenyl)-7-[2-(naphthalen-2-yl)phenyl]hepta-1,6-diene-3,5-dione] stands 105 to 114 °C; under `CS(=O)(=O)N1CCN(c2ccccc2/C=C/C(=O)CC(=O)/C=C/c2ccc(O)cc2)CC1` [CU500, (1E,6E)-1-(4-hydroxyphenyl)-7-{2-[4-(methylsulfonyl)piperazin-1-yl]phenyl}hepta-1,6-diene-3,5-dione], 126 to 131 °C; under `O=C(/C=C/c1ccc(O)cc1)CC(=O)/C=C/c1ccccc1N1CCNCC1.O=C(O)C(F)(F)F.O=C(O)C(F)(F)F`, 139 to 150 °C.
As to `COc1ccc(/C=C/C(=O)CC(=O)/C=C/c2ccc(O)c(F)c2)cc1O` [CU035, (1E,6E)-1-(3-fluoro-4-hydroxyphenyl)-7-(3-hydroxy-4-methoxyphenyl)hepta-1,6-diene-3,5-dione], the melting point lay in the range of 173 to 176 °C.
Under `COc1cc(/C=C/C(=O)C(=Cc2ccncc2)C(C)=O)ccc1O` [CU014, (5E)-6-(4-hydroxy-3-methoxyphenyl)-3-(pyridin-4-ylmethylene)hex-5-ene-2,4-dione] stands 92 to 95 °C; under `COc1cc(/C=C/C(=O)CC(=O)/C=C/c2cn(Cc3ccccc3)c3ccccc23)ccc1O` [CU416, (1E,6E)-1-(1-benzyl-1H-indol-3-yl)-7-(4-hydroxy-3-methoxyphenyl)hepta-1,6-diene-3,5-dione], 158 to 161 °C.
Turning to `O=C(/C=C/c1ccc(O)cc1)CC(=O)/C=C/c1ccc(O)c([N+](=O)[O-])c1` [CU039, (1E,6E)-1-(4-hydroxy-3-nitrophenyl)-7-(4-hydroxyphenyl)hepta-1,6-diene-3,5-dione], the melting point was 240 to 245 °C.
